{"source": "patent US20220402935A1", "about": "“HETEROCYCLIC COMPOUND” (FIMECS, INC., priority 2019, published 2022)"}
{"target": "T1, IRAK-M (Homo sapiens, UniProt Q9Y616)", "T1 sequence (Q9Y616 1-596)": "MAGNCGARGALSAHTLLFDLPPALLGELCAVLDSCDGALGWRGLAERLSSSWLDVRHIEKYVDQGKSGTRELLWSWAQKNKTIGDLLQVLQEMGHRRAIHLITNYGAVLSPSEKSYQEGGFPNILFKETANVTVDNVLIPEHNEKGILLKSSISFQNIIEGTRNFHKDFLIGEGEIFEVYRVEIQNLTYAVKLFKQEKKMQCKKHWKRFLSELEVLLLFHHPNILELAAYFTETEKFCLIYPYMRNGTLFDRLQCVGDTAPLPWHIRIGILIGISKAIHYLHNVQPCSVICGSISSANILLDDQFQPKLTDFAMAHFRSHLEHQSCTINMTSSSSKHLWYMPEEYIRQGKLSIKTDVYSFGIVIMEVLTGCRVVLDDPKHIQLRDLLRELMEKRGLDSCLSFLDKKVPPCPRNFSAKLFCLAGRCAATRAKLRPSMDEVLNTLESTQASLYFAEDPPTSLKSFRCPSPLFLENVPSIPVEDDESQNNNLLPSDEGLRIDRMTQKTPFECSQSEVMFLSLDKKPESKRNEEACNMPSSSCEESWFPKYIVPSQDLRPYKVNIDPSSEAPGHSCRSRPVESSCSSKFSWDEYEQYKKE", "assay": "IRAK-M binding inhibitory activity (KINOMEscan active site-dependent competitive assay)", "parameters": "purchased Eurofins Discover X", "details": "concentration of the test compound 1 μM; first symbol of cell; read-out: IRAK-M binding inhibition activity % Ctrl", "experimental": "(§1) IRAK-M binding inhibitory activity was evaluated using active site-dependent competitive assay KINOMEscan® provided by Eurofins Discover X (Goldstein, D. M. et al. High-throughput kinase profiling as a platform for drug discovery. Nat. Rev. Drug Discovery. 7, 391-397 (2008)). IRAK-M binding inhibitory activity of the test compound was evaluated. […] The “% Ctrl” is calculated by the following formula.\n(§2) (test compound signal−positive control compound signal)/(negative control compound signal−positive control compound signal)×100\n(§3) Negative control compound=DMSO (100 Ctrl)\n(§4) Positive control compound=control compound (0%×Ctrl)", "units": {"remaining binding at 1 µM": "%"}}
{"smiles": "COCCS(=O)(=O)N1CCC(Oc2ncnc3ccsc23)CC1", "note": "[Ref. example 40, 4-((1-((2-methoxyethyl)sulfonyl)piperidin-4-yl)oxy)thieno[3,2-d]pyrimidine]", "remaining binding at 1 µM": "25 to 50"}
{"smiles": "O=S(=O)(Cc1ccccc1)N1CCC(Oc2ncnc3ccsc23)CC1", "note": "[Ref. example 41, 4-((1-(benzylsulfonyl)piperidin-4-yl)oxy)thieno[3,2-d]pyrimidine]", "remaining binding at 1 µM": "25 to 50"}
{"smiles": "CC(C)(C)OC(=O)N1CCC(CS(=O)(=O)N2CCC(Oc3ncnc4ccsc34)CC2)CC1", "note": "[Ref. example 42, tert-butyl 4-(((4-(thieno[3,2-d]pyrimidin-4-yloxy)piperidin-1-yl)sulfonyl)methyl)piperidine-1-carboxylate]", "remaining binding at 1 µM": "50 to 75"}
{"smiles": "CCOC(=O)CCS(=O)(=O)N1CCC(Oc2ncnc3ccsc23)CC1", "note": "[Ref. example 43, ethyl 3-((4-(thieno[3,2-d]pyrimidin-4-yloxy)piperidin-1-yl)sulfonyl)propanoate]", "remaining binding at 1 µM": "50 to 75"}
{"smiles": "O=S(=O)(C1CC1)N1CCC(Oc2ncnc3ccsc23)CC1", "note": "[Ref. example 44, 4-((1-(cyclopropylsulfonyl)piperidin-4-yl)oxy)thieno[3,2-d]pyrimidine]", "remaining binding at 1 µM": "25 to 50"}
{"smiles": "O=S(=O)(c1ccccc1Cl)N1CCC(Oc2ncnc3ccsc23)CC1", "note": "[Ref. example 45, 4-((1-((2-chlorophenyl)sulfonyl)piperidin-4-yl)oxy)thieno[3,2-d]pyrimidine]", "remaining binding at 1 µM": "< 25"}
{"smiles": "COc1ccccc1S(=O)(=O)N1CCC(Oc2ncnc3ccsc23)CC1", "note": "[Ref. example 46, 4-((1-((2-methoxyphenyl)sulfonyl)piperidin-4-yl)oxy)thieno[3,2-d]pyrimidine]", "remaining binding at 1 µM": "< 25"}
{"smiles": "Cc1ccccc1S(=O)(=O)N1CCC(Oc2ncnc3ccsc23)CC1", "note": "[Ref. example 47, 4-((1-(o-tolylsulfonyl)piperidin-4-yl)oxy)thieno[3,2-d]pyrimidine]", "remaining binding at 1 µM": "< 25"}
{"smiles": "O=S(=O)(c1ccccc1Oc1ccc(F)cc1)N1CCC(Oc2ncnc3ccsc23)CC1", "note": "[Ref. example 48, 4-((1-((2-(4-fluorophenoxy)phenyl)sulfonyl)piperidin-4-yl)oxy)thieno[3,2-d]pyrimidine]", "remaining binding at 1 µM": "< 25"}
{"smiles": "O=S(=O)(c1ccccc1F)N1CCC(Oc2ncnc3ccsc23)CC1", "note": "[Ref. example 49, 4-((1-((2-fluorophenyl)sulfonyl)piperidin-4-yl)oxy)thieno[3,2-d]pyrimidine]", "remaining binding at 1 µM": "25 to 50"}
{"smiles": "O=S(=O)(c1ccccc1OC(F)(F)F)N1CCC(Oc2ncnc3ccsc23)CC1", "note": "[Ref. example 50, 4-((1-((2-(trifluoromethoxy)phenyl)sulfonyl)piperidin-4-yl)oxy)thieno[3,2-d]pyrimidine]", "remaining binding at 1 µM": "25 to 50"}
{"smiles": "COc1ccc(S(=O)(=O)N2CCC(Oc3ncnc4ccsc34)CC2)cc1", "note": "[Ref. example 51, 4-((1-((4-methoxyphenyl)sulfonyl)piperidin-4-yl)oxy)thieno[3,2-d]pyrimidine]", "remaining binding at 1 µM": "25 to 50"}
{"smiles": "O=S(=O)(c1ccc(Cl)cc1)N1CCC(Oc2ncnc3ccsc23)CC1", "note": "[Ref. example 52, 4-((1-((4-chlorophenyl)sulfonyl)piperidin-4-yl)oxy)thieno[3,2-d]pyrimidine]", "remaining binding at 1 µM": "< 25"}
{"smiles": "O=S(=O)(c1ccc(F)cc1)N1CCC(Oc2ncnc3ccsc23)CC1", "note": "[Ref. example 53, 4-((1-((4-fluorophenyl)sulfonyl)piperidin-4-yl)oxy)thieno[3,2-d]pyrimidine]", "remaining binding at 1 µM": "25 to 50"}
{"smiles": "COc1cccc(S(=O)(=O)N2CCC(Oc3ncnc4ccsc34)CC2)c1", "note": "[Ref. example 54, 4-((1-((3-methoxyphenyl)sulfonyl)piperidin-4-yl)oxy)thieno[3,2-d]pyrimidine]", "remaining binding at 1 µM": "25 to 50"}
{"smiles": "Cc1ccc(S(=O)(=O)N2CCC(Oc3ncnc4ccsc34)CC2)cc1", "note": "[Ref. example 55, 4-((1-(4-methylbenzenesulfonyl)piperidin-4-yl)oxy)thieno[3,2-d]pyrimidine]", "remaining binding at 1 µM": "25 to 50"}
{"smiles": "O=S(=O)(c1cccc(F)c1)N1CCC(Oc2ncnc3ccsc23)CC1", "note": "[Ref. example 56, 4-((1-((3-fluorophenyl)sulfonyl)piperidin-4-yl)oxy)thieno[3,2-d]pyrimidine]", "remaining binding at 1 µM": "25 to 50"}
{"smiles": "O=S(=O)(c1cccc(Cl)c1)N1CCC(Oc2ncnc3ccsc23)CC1", "note": "[Ref. example 57, 4-((1-((3-chlorophenyl)sulfonyl)piperidin-4-yl)oxy)thieno[3,2-d]pyrimidine]", "remaining binding at 1 µM": "25 to 50"}
{"smiles": "O=S(=O)(c1cccnc1)N1CCC(Oc2ncnc3ccsc23)CC1", "note": "[Ref. example 58, 4-((1-(pyridin-3-ylsulfonyl)piperidin-4-yl)oxy)thieno[3,2-d]pyrimidine]", "remaining binding at 1 µM": "25 to 50"}
{"smiles": "O=S(=O)(c1cnn(Cc2ccccc2)c1)N1CCC(Oc2ncnc3ccsc23)CC1", "note": "[Ref. example 59, 4-((1-((1-benzyl-1H-pyrazol-4-yl)sulfonyl)piperidin-4-yl)oxy)thieno[3,2-d]pyrimidine]", "remaining binding at 1 µM": "25 to 50"}
{"smiles": "COc1ccc(S(=O)(=O)N2CCC(Oc3ncnc4ccsc34)CC2)cn1", "note": "[Ref. example 60, 4-((1-((6-methoxypyridin-3-yl)sulfonyl)piperidin-4-yl)oxy)thieno[3,2-d]pyrimidine]", "remaining binding at 1 µM": "25 to 50"}
{"smiles": "Cc1cnn(C)c1S(=O)(=O)N1CCC(Oc2ncnc3ccsc23)CC1", "note": "[Ref. example 61, 4-((1-((1,4-dimethyl-1H-pyrazol-5-yl)sulfonyl)piperidin-4-yl)oxy)thieno[3,2-d]pyrimidine]", "remaining binding at 1 µM": "≥ 75"}
{"smiles": "CC(C)CS(=O)(=O)N1CCC(Oc2ncnc3ccsc23)CC1", "note": "[Ref. example 62, 4-((1-(isobutylsulfonyl)piperidin-4-yl)oxy)thieno[3,2-d]pyrimidine]", "remaining binding at 1 µM": "25 to 50"}
{"smiles": "O=S(=O)(CCc1ccccc1)N1CCC(Oc2ncnc3ccsc23)CC1", "note": "[Ref. example 63, 4-((1-(phenethylsulfonyl)piperidin-4-yl)oxy)thieno[3,2-d]pyrimidine]", "remaining binding at 1 µM": "< 25"}
{"smiles": "O=S(=O)(c1cccc(Oc2ccccc2)c1)N1CCC(Oc2ncnc3ccsc23)CC1", "note": "[Ref. example 64, 4-((1-((3-phenoxyphenyl)sulfonyl)piperidin-4-yl)oxy)thieno[3,2-d]pyrimidine]", "remaining binding at 1 µM": "< 25"}
{"smiles": "CCOc1ccc(Nc2ncnc3ccsc23)cc1", "note": "[Ref. example 65, N-(4-ethoxyphenyl)thieno[3,2-d]pyrimidin-4-amine]", "remaining binding at 1 µM": "≥ 75"}
{"smiles": "COc1ccc(Nc2nc(C)nc3cc(C)sc23)cc1OC", "note": "[Ref. example 66, N-(3,4-dimethoxyphenyl)-2,6-dimethylthieno[3,2-d]pyrimidin-4-amine]", "remaining binding at 1 µM": "50 to 75"}
{"smiles": "C#CCN1CCC(Oc2ccnc3ccsc23)CC1", "note": "[Ref. example 67, 7-((1-(prop-2-yn-1-yl)piperidin-4-yl)oxy)thieno[3,2-b]pyridine]", "remaining binding at 1 µM": "25 to 50"}
{"smiles": "Cn1nc(O)cc1CN1CCC(Oc2ccnc3ccsc23)CC1", "note": "[Ref. example 68, 1-methyl-5-((4-(thieno[3,2-b]pyridin-7-yloxy)piperidin-1-yl)methyl)-1H-pyrazol-3-ol]", "remaining binding at 1 µM": "25 to 50"}
{"target": "T1, IRAK-M", "assay": "IRAK-M binding inhibitory activity (KINOMEscan active site-dependent competitive assay)", "parameters": "purchased Eurofins Discover X", "details": "second symbol of cell; read-out: IRAK-M binding inhibition IC50 value", "experimental": "as §1, §2, §3, §4", "units": {"IC50": "nM"}}
{"smiles": "C=CCOc1cc(CN2CCC(Oc3ccnc4ccsc34)CC2)n(C)n1", "note": "[Ref. example 69, 7-((1-((3-(allyloxy)-1-methyl-1H-pyrazol-5-yl)methyl)piperidin-4-yl)oxy)thieno[3,2-b]pyridine]", "IC50": "100 to 300"}
